# Measured values reported in US8940788B2, “Anti-angiogenic composition containing macrolactin A and a derivative thereof as active ingredients” (Daewoo Pharmaceutical Ind. Co., Ltd., priority 2010, dated 2015).
# What was measured:
# [1] = system: Human fibrosarcoma cells (HT-1080); assay: Infiltration test of fibrosarcoma cells (suppressive effect on metastasis of cancer), transwell with Matrigel; format: cell-based; conditions: 18 hours
# Procedure: Human fibrosarcoma cells (HT-1080) were cultured in DMEM containing 10% fetal bovine serum (FBS) and 1% penicillin/streptomycin (PS) under the condition of 37° C. and 5% CO2. When the cells grew to fill 80% or more of the culture flask, they were subcultured at a ratio of 1:3 and used in this test. In order to confirm the suppressive effect of the macrolactin compounds on metastasis of cancer in in vitro experiments, an infiltration test of fibrosarcoma cells was carried out by using a 24-well transwell attached with a polycarbonate filter of […] pore size. Firstly, the bottom side of the filter was coated with Collagen Type I (0.5 mg/ml), and then the upper side of the filter was coated with Matrigel (1.5 mg/ml). After coating, the lower part of the insert was filled with a medium containing 5% FBS, and the upper part was filled with serum-free medium human fibrosarcoma cells (HT-1080) which were incubated for 18 hours in a cell incubator. The human fibrosarcoma cells infiltrated into the bottom side of the filter were fixed with methanol and then dyed with hematoxylin and eosin. The infiltrated cells were observed under a microscope, and 3 parts were randomly selected from each filter to take photographs and determine the number of cells (Kim, M. S. et al., Cancer Res., 63, pp. 5454-5461, 2003; Park, B. C. et al., Eur. J. Pharm., 567, pp. 193-197, 2007).
# [2] = system: chorioallantoic membrane (CAM) neovascular formation induced by VEGF; assay: CAM analysis of suppressive effect on angiogenesis, neovascular formation induced by VEGF; format: in vivo, chicken; conditions: VEGF 20 ng/CAM; for suppression of neovascular formation caused by VEGF (number of blood vessel branches): various concentrations of compound, three days after treatment
# Procedure: (§1) In order to confirm an anti-angiogenic effect of the macrolactin compounds in in vivo test, chorioallantoic membrane (CAM) analysis was carried out (Nguyen M. et al., Microvascular Res., 47, pp. 31-40, 1994). 6±1 fertile eggs were used per group.
# (§2) Fertile chicken eggs were cultured while maintaining the temperature of 37° C. and the relative humidity of 55%. On the third day of culture, a first small hole was made in the air sac part with a hypodermic needle (Green Cross Medical Corporation, Korea), and a second hole was made in the plat part of the fertile eggs to make a window.
# (§3) The CAM was separated from the eggshell by expelling the air through the first hole in the air sac, and then the part was cut with a grinding wheel (Multipro 395JA, Dremel, Mexico) to make a window.
# (§4) A Whatman filter disc #1 (Whatman, USA) was treated with 3 mg/ml of cortisone acetate and dried. The filter disc was treated with 10 μl of VEGF, TNF-α or IL-8 (20 ng/CAM).
# (§5) Through the pre-made window, the filter disc was put on blood vessel, and then treated with various concentrations of MA, MMA or SMA which was dissolved in DMSO and diluted with PBS.
# Three days after treatment, the CAM part with the filter disc was separated and washed with phosphate buffer solution. The photographs were taken by using a stereomicroscope (Leica, Wetzlar, Germany) and Image-Pro Plus software (Media Cybernetics; Silver Spring, Md., USA) to determine the number of bleed vessel branches and to analyze the data.
# All data were represented as mean±standard error of mean, and the statistical analysis was done as one-way ANOVA by using GraphPad Prism 4 Software (San Diego, Calif., USA). Multiple comparisons between the differences of each group were made by using the NK (Newman-Keuls) method. When p-value was less than 0.05, the data were regarded as statistically significant.
# [3] = system: chorioallantoic membrane (CAM) neovascular formation induced by TNF-α; assay: CAM analysis of suppressive effect on angiogenesis, neovascular formation induced by TNF-α; format: in vivo, chicken; conditions: TNF-α 20 ng/CAM; various concentrations of compound; three days after treatment
# Procedure: as §1, §2, §3, §4, §5
# (§6) Three days after treatment, the CAM part with the filter disc was separated and washed with phosphate buffer solution. […]
# [4] = system: chorioallantoic membrane (CAM) neovascular formation induced by IL-8; assay: CAM analysis of suppressive effect on angiogenesis, neovascular formation induced by IL-8; format: in vivo, chicken; conditions: IL-8 20 ng/CAM; various concentrations of compound; three days after treatment
# Procedure: as §1, §2, §3, §4, §5, §6
SMILES,dose dependence of suppression of metastasis (infiltration) of fibrosarcoma cells induced by 5% FBS [1],suppression of neovascular formation caused by VEGF (number of blood vessel branches) [2],suppression of neovascular formation caused by TNF-α (number of blood vessel branches) [3],suppression of neovascular formation caused by IL-8 (number of blood vessel branches) [4],suppressive effect on metastasis (infiltration) of fibrosarcoma cells induced by 5% FBS ([1]; compound 1 μM),suppressive effect on metastasis (infiltration) of fibrosarcoma cells induced by 5% FBS ([1]; compound 5 μM),dose dependence of suppression of neovascular formation caused by VEGF ([2]; various concentrations)
"CC1CCC/C=C/C=C/[C@H](O)C[C@@H](O)C/C=C\C=C\[C@@H](O)C/C=C/C=C\C(=O)O1 (stereo partly drawn) [MA, macrolactin A]",in a dose-dependent way,strongly suppressed,strongly suppressed,strongly suppressed,–,–,–
"C[C@@H]1CCC/C=C/C=C/[C@H](O)C[C@@H](O)C/C=C\C=C\[C@@H](OC(=O)CC(=O)O)C/C=C/C=C\C(=O)O1 [MMA, 7-O-malonyl macrolactin A]",–,strongly suppressed,–,–,–,–,–
"C[C@@H]1CCC/C=C/C=C/[C@H](O)C[C@@H](O)C/C=C\C=C\[C@@H](OC(=O)CCC(=O)O)C/C=C/C=C\C(=O)O1 [SMA, 7-O-succinyl macrolactin A]",in a dose-dependent way,strongly suppressed,strongly suppressed,strongly suppressed,significant suppressive effect,superior suppressive effect on the metastasis comparable to that of batimastat,suppressed neovascular formation in a dose-dependent way
